Laboratory results taken from ChEMBL document CHEMBL1201862, “PubChem BioAssay data set” (2004).
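Tested at 5 concentrations; 48 h exposure; 96-well plates; endpoints linearly interpolated, else capped at highest concentration. The concentration for 50% growth inhibition is given as GI50.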 Activity calls are given as the source filed them. Cut-off read from the data, not from the text of the source: active = GI50 up to about 1.1 µM and inactive = higher.

What was measured:
Test in all cases: NCI tumour cell line growth inhibition, 48 h
OVCAR-8 = system: OVCAR-8
SR = system: SR
UO-31 = system: UO-31
RPMI-8226 = system: RPMI-8226
786-0 = system: 786-0
A549 = system: A549
CAKI-1 = system: CAKI-1
KM-20L2 = system: KM-20L2
DLD-1 = system: DLD-1
NCI-H226 = system: NCI-H226
SNB-75 = system: SNB-75
HCC 2998 = system: HCC 2998
A498 = system: A498
SW-620 = system: SW-620
SK-MEL-28 = system: SK-MEL-28
OVCAR-4 = system: OVCAR-4
TK-10 = system: TK-10
SK-OV-3 = system: SK-OV-3
LOX IMVI = system: LOX IMVI
NCI-H23 = system: NCI-H23
RXF 393 = system: RXF 393
SK-MEL-5 = system: SK-MEL-5
HOP-92 = system: HOP-92
DMS-273 = system: DMS-273
HOP-62 = system: HOP-62
HCT-15 = system: HCT-15
SF-268 = system: SF-268
IGROV-1 = system: IGROV-1
EKVX = system: EKVX
SNB-19 = system: SNB-19
SF-539 = system: SF-539
MOLT-4 = system: MOLT-4
SNB-78 = system: SNB-78
K562 = system: K562
ACHN = system: ACHN
OVCAR-3 = system: OVCAR-3
OVCAR-5 = system: OVCAR-5
SF-295 = system: SF-295
SN12C = system: SN12C
HL-60 = system: HL-60
XF498 = system: XF498
LXFL 529 = system: LXFL 529
U-251 = system: U-251
COLO 205 = system: COLO 205
UACC-257 = system: UACC-257
DMS-114 = system: DMS-114
M19-MEL = system: M19-MEL
UACC-62 = system: UACC-62
HT-29 = system: HT-29
Malme-3M = system: Malme-3M
HCT-116 = system: HCT-116
NCI-H522 = system: NCI-H522
KM12 = system: KM12
M14 = system: M14
NCI-H460 = system: NCI-H460
RXF 631 = system: RXF 631
HOP-18 = system: HOP-18
SK-MEL-2 = system: SK-MEL-2
CCRF-CEM = system: CCRF-CEM

With `NCCSSCc1ccccc1CSSCCN` the GI50 (OVCAR-8) was 66.2 µM (inactive), the GI50 (SR) was 41.7 µM (inactive) and the GI50 (UO-31) was > 100 µM (inactive). For the same compound, the GI50 (RPMI-8226) was 67.8 µM (inactive), the GI50 (786-0) was > 100 µM (inactive) and the GI50 (A549) was > 100 µM (inactive). The GI50 (CAKI-1) was > 100 µM (inactive), the GI50 (KM-20L2) was > 100 µM (inactive) and the GI50 (DLD-1) was 48.4 µM (inactive). For the same compound, the GI50 (NCI-H226) was > 100 µM (inactive), the GI50 (SNB-75) was > 100 µM (inactive) and the GI50 (HCC 2998) was 50.1 µM (inactive). For the same compound, the GI50 (A498) was > 100 µM (inactive), the GI50 (SW-620) was 20.4 µM (inactive) and the GI50 (SK-MEL-28) was > 100 µM (inactive). The GI50 (OVCAR-4) was > 100 µM (inactive), the GI50 (TK-10) was > 100 µM (inactive) and the GI50 (SK-OV-3) was > 100 µM (inactive). For the same compound, the GI50 (LOX IMVI) was 14 µM (inactive), the GI50 (NCI-H23) was > 100 µM (inactive) and the GI50 (RXF 393) was > 100 µM (inactive). The GI50 (SK-MEL-5) was 57.9 µM (inactive), the GI50 (HOP-92) was > 100 µM (inactive) and the GI50 (DMS-273) was 48.9 µM (inactive). The GI50 (HOP-62) was > 100 µM (inactive), the GI50 (HCT-15) was 38.5 µM and the GI50 (SF-268) was > 100 µM (inactive). For the same compound, the GI50 (IGROV-1) was > 100 µM (inactive), the GI50 (EKVX) was > 100 µM (inactive) and the GI50 (SNB-19) was > 100 µM (inactive). For the same compound, the GI50 (SF-539) was > 100 µM (inactive), the GI50 (MOLT-4) was 30.5 µM (inactive) and the GI50 (SNB-78) was > 100 µM (inactive). For the same compound, the GI50 (K562) was 16.4 µM (inactive), the GI50 (ACHN) was 8.65 µM (inactive) and the GI50 (OVCAR-3) was > 100 µM (inactive). For the same compound, the GI50 (OVCAR-5) was > 100 µM (inactive), the GI50 (SF-295) was > 100 µM (inactive) and the GI50 (SN12C) was > 100 µM (inactive). For the same compound, the GI50 (HL-60) was 8.02 µM (inactive), the GI50 (XF498) was > 100 µM (inactive) and the GI50 (LXFL 529) was 50 µM (inactive). For the same compound, the GI50 (U-251) was > 100 µM (inactive), the GI50 (COLO 205) was > 100 µM (inactive) and the GI50 (UACC-257) was > 100 µM (inactive). For the same compound, the GI50 (DMS-114) was > 100 µM (inactive), the GI50 (M19-MEL) was 29.2 µM (inactive) and the GI50 (UACC-62) was > 100 µM (inactive). For the same compound, the GI50 (HT-29) was 97.1 µM (inactive), the GI50 (Malme-3M) was 72.3 µM (inactive) and the GI50 (HCT-116) was > 100 µM (inactive). For the same compound, the GI50 (NCI-H522) was 14.1 µM (inactive), the GI50 (KM12) was > 100 µM (inactive) and the GI50 (M14) was > 100 µM (inactive). The GI50 (NCI-H460) was > 100 µM (inactive), the GI50 (RXF 631) was > 100 µM (inactive) and the GI50 (HOP-18) was > 100 µM (inactive).

`COc1cccc2c1OC1Sc3ccccc3-c3nn(-c4ccccc4)c-2c31` (stereo unspecified) was tested, and the GI50 (OVCAR-8) was > 100 µM (inactive), the GI50 (UO-31) was > 100 µM (inactive) and the GI50 (RPMI-8226) was > 100 µM (inactive). For the same compound, the GI50 (786-0) was > 100 µM (inactive), the GI50 (A549) was > 100 µM (inactive) and the GI50 (KM-20L2) was > 100 µM (inactive). For the same compound, the GI50 (DLD-1) was > 100 µM (inactive), the GI50 (SNB-75) was > 100 µM (inactive) and the GI50 (HCC 2998) was > 100 µM (inactive). For the same compound, the GI50 (A498) was > 100 µM (inactive), the GI50 (SW-620) was > 100 µM (inactive) and the GI50 (SK-MEL-28) was > 100 µM (inactive). The GI50 (TK-10) was > 100 µM (inactive), the GI50 (SK-OV-3) was > 100 µM (inactive) and the GI50 (LOX IMVI) was > 100 µM (inactive). For the same compound, the GI50 (NCI-H23) was > 100 µM (inactive), the GI50 (RXF 393) was > 100 µM (inactive) and the GI50 (HOP-92) was > 100 µM (inactive). The GI50 (DMS-273) was > 100 µM (inactive), the GI50 (HOP-62) was > 100 µM (inactive) and the GI50 (SF-268) was > 100 µM (inactive). The GI50 (IGROV-1) was > 100 µM (inactive), the GI50 (EKVX) was > 100 µM (inactive) and the GI50 (SF-539) was > 100 µM (inactive). The GI50 (MOLT-4) was > 100 µM (inactive), the GI50 (SK-MEL-2) was > 100 µM (inactive) and the GI50 (SNB-78) was > 100 µM (inactive). The GI50 (K562) was > 100 µM (inactive), the GI50 (ACHN) was > 100 µM (inactive) and the GI50 (OVCAR-3) was > 100 µM (inactive). For the same compound, the GI50 (OVCAR-5) was > 100 µM (inactive), the GI50 (SF-295) was > 100 µM (inactive) and the GI50 (HL-60) was > 100 µM (inactive). For the same compound, the GI50 (XF498) was > 100 µM (inactive), the GI50 (LXFL 529) was > 100 µM (inactive) and the GI50 (U-251) was > 100 µM (inactive). For the same compound, the GI50 (COLO 205) was > 100 µM (inactive), the GI50 (UACC-257) was > 100 µM (inactive) and the GI50 (DMS-114) was > 100 µM (inactive). The GI50 (M19-MEL) was > 100 µM (inactive), the GI50 (CCRF-CEM) was > 100 µM (inactive) and the GI50 (HT-29) was > 100 µM (inactive). For the same compound, the GI50 (Malme-3M) was > 100 µM (inactive), the GI50 (HCT-116) was > 100 µM (inactive) and the GI50 (NCI-H522) was 26.7 µM (inactive). For the same compound, the GI50 (KM12) was > 100 µM (inactive), the GI50 (NCI-H460) was > 100 µM (inactive) and the GI50 (RXF 631) was > 100 µM (inactive). The GI50 (HOP-18) was > 100 µM (inactive).
